The values that follow come from patent US20140072654A1, “CANCER WITH METABOLIC THERAPY AND HYPERBARIC OXYGEN” (priority 2011, published 2014).

In one data set the test system is VM-M3 cells. It is filed as cell-based, mouse. To be noted: 5 mM βHB, 24, 48, 72 and 96 hrs. As to the method:
Cell proliferation rate was measured using the MTT Cell Proliferation Assay (ATCC). Cells were plated onto a 96 well plate and grown to desired density. […] In proliferating cells, MTT is reduced to purple formazan which absorbs light at 490-520 nm and whose excitation can be measured using standard fluorescent microscopy and spectrophotometry. Rapidly dividing cells reduce MTT at very high rates, indicating their rate of proliferation. Cell proliferation can also be measured with Ki67 immunohistochemistry staining, cell viability can also be evaluated with the LDH Cytotoxicity Assay (Cayman Chemical).
Cell viability was measured using the LIVE/DEAD Viability/Cytotoxicity Kit for Mammalian Cells (Invitrogen). Cells were grown to desired density on a coverslip and washed with Dulbecco's phosphate-buffered saline (D-PBS). […] The two-color fluorescence assay contains two probes which specifically label live or dead cells. […] Calcein produces an intense green fluorescence with an excitation/emission of 495/515 nm. Ethidium homodimer-1 (Ethd-1) enters cells with damaged membranes and binds to nucleic acid. Ethd-1 bound to DNA produces a red fluorescence in dead cells with an excitation/emission of 495/635 nm. Live and dead cells were identified and quantified using standard fluorescent microscopy. […]

For data set [1] the following is noted: in vivo; cited from earlier work.

As to `CC(O)CC(=O)O` (stereo not drawn) [βHB, β-hydroxybutyrate], the “proliferation” value in the data set with VM-M3 cells is on record as “significantly decreased”. Take MCT oil: in data set [1], the “levels of ketones produced by supplementation” value is < 500 µM.
